# Earlier results in patent publication US20200315965A1, “NANOEMULSION CONCENTRATE FORMULATIONS AND METHODS” (priority 2019, published 2020).
# Conditions: water
compound,measurement,value
"CCCCCc1cc(O)c2c(c1)OC(C)(C)[C@@H]1CCC(C)=C[C@@H]21 [THC, tetrahydrocannabinol]",aqueous solubility,~0.003 milligrams per milliliter
